From ChEMBL document CHEMBL2073895, “Charged amino acids in the transmembrane domains are involved in the determination of the substrate specificity of rat Mrp2” (Mol Pharmacol, 2001)

Columns and labels:
Type in all cases: functional, cell membranes, Membrane vesicle
[1] = biological target: T1, ATP-binding cassette sub-family C member 2 (Rattus norvegicus, UniProt Q63120); test: TP_TRANSPORTER: inhibition of E217betaG uptake (E217betaG: 0.055 uM) in membrane vesicles from Mrp2-expressing Sf9 cells
[2] = biological target: T1, ATP-binding cassette sub-family C member 2; test: TP_TRANSPORTER: inhibition of DNP-SG uptake (DNP-SG: 0.05 uM) in membrane vesicles from Mrp2-expressing Sf9 cells
[3] = substrate: C[C@]12CC[C@@H]3c4ccc(O)cc4CC[C@H]3[C@@H]1CC[C@@H]2O[C@@H]1O[C@H](C(=O)O)[C@@H](O)[C@H](O)[C@H]1O; test: TP_TRANSPORTER: uptake in membrane vesicles from Mrp2-expressing Sf9 cells

N[C@@H](CCC(=O)N[C@H](CSc1ccc([N+](=O)[O-])cc1[N+](=O)[O-])C(=O)NCC(=O)O)C(=O)O
IC50 [1]: 19.3 µM

C[C@]12CC[C@@H]3c4ccc(O)cc4CC[C@H]3[C@@H]1CC[C@@H]2O[C@@H]1O[C@H](C(=O)O)[C@@H](O)[C@H](O)[C@H]1O [ESTRADIOL 17B GLUCURONIDE]
IC50 [2]: 13.3 µM

CCCCC/C=C\C\C=C/C=C/C=C/[C@@H](SC[C@@H](NC(=O)CC[C@H](N)C(=O)O)C(=O)NCC(=O)O)[C@@H](O)CCCC(=O)O [LEUKOTRIEN C4]
IC50 [1]: 0.65 µM

CCCCC/C=C\C\C=C/C=C/C=C/[C@@H](SC[C@H](N)C(=O)O)[C@@H](O)CCCC(=O)O [LEUKOTRIEN E4]
IC50 [1]: 9.83 µM

CCCCC/C=C\C\C=C/C=C/C=C/[C@@H](SC[C@H](NC(=O)CC[C@@H](N)C(=O)O)C(=O)O)[C@@H](O)CCCC(=O)O [LEUKOTRIEN F4]
IC50 [1]: 10 µM

CCCCC/C=C\C\C=C/C=C/C=C/[C@@H](SC[C@H](N)C(=O)NCC(=O)O)[C@@H](O)CCCC(=O)O [LEUKOTRIENE D4]
IC50 [1]: 5.48 µM

CN(C)C(=O)CCSC(SCCC(=O)O)c1cccc(/C=C/c2ccc3ccc(Cl)cc3n2)c1 (stereo not drawn) [MK-571]
IC50 [1]: 2.62 µM

B1: ATP-binding cassette sub-family C member 2 (Rattus norvegicus) (protein)
chain: MDKFCNSTFWDLSLLESPEADLPLCFEQTVLVWIPLGFLWLLAPWQLYSVYRSRTKRSSITKFYLAKQVFVVFLLILAAIDLSLALTEDTGQATVPPVRYTNPILYLCTWLLVLAVQHSRQWCVRKNSWFLSLFWILSVLCGVFQFQTLIRALLKDSKSNMAYSYLFFVSYGFQIVLLILTAFSGPSDSTQTPSVTASFLSSITFSWYDRTVLKGYKHPLTLEDVWDIDEGFKTRSVTSKFEAAMTKDLQKARQAFQRRLQKSQRKPEATLHGLNKKQSQSQDVLVLEEAKKKSEKTTKDYPKSWLIKSLFKTFHVVILKSFILKLIHDLLVFLNPQLLKLLIGFVKSSNSYVWFGYICAILMFAVTLIQSFCLQSYFQHCFVLGMCVRTTVMSSIYKKALTLSNLARKQYTIGETVNLMSVDSQKLMDATNYMQLVWSSVIQITLSIFFLWRELGPSILAGVGVMVLLIPVNGVLATKIRNIQVQNMKNKDKRLKIMNEILSGIKILKYFAWEPSFQEQVQGIRKKELKNLLRFGQLQSLLIFILQITPILVSVVTFSVYVLVDSANVLNAEKAFTSITLFNILRFPLSMLPMVTSSILQASVSVDRLERYLGGDDLDTSAIRRVSNFDKAVKFSEASFTWDPDLEATIQDVNLDIKPGQLVAVVGTVGSGKSSLVSAMLGEMENVHGHITIQGSTAYVPQQSWIQNGTIKDNILFGSEYNEKKYQQVLKACALLPDLEILPGGDMAEIGEKGINLSGGQKQRVSLARAAYQDADIYILDDPLSAVDAHVGKHIFNKVVGPNGLLAGKTRIFVTHGIHFLPQVDEIVVLGKGTILEKGSYRDLLDKKGVFARNWKTFMKHSGPEGEATVNNDSEAEDDDDGLIPTMEEIPEDAASLAMRRENSLRRTLSRSSRSSSRRGKSLKNSLKIKNVNVLKEKEKEVEGQKLIKKEFVETGKVKFSIYLKYLQAVGWWSILFIILFYGLNNVAFIGSNLWLSAWTSDSDNLNGTNNSSSHRDMRIGVFGALGLAQGICLLISTLWSIYACRNASKALHGQLLTNILRAPMRFFDTTPTGRIVNRFSGDISTVDDLLPQTLRSWMMCFFGIAGTLVMICMATPVFAIIIIPLSILYISVQVFYVATSRQLRRLDSVTKSPIYSHFSETVTGLPIIRAFEHQQRFLAWNEKQIDINQKCVFSWITSNRWLAIRLELVGNLVVFCSALLLVIYRKTLTGDVVGFVLSNALNITQTLNWLVRMTSEAETNIVAVERISEYINVENEAPWVTDKRPPADWPRHGEIQFNNYQVRYRPELDLVLKGITCNIKSGEKVGVVGRTGAGKSSLTNCLFRILESAGGQIIIDGIDVASIGLHDLRERLTIIPQDPILFSGSLRMNLDPFNKYSDEEVWRALELAHLRSFVSGLQLGLLSEVTEGGDNLSIGQRQLLCLGRAVLRKSKILVLDEATAAVDLETDSLIQTTIRKEFSQCTVITIAHRLHTIMDSDKIMVLDNGKIVEYGSPEELLSNRGSFYLMAKEAGIENVNHTEL
Km [3]: 3.91 µM
